In patent US20240398781A1, “SPIROCYCLIC CYCLIC MODULATORS OF CHOLESTEROL BIOSYNTHESIS AND THEIR USE FOR PROMOTING REMYELINATION” (GENENTECH, INC., priority 2021, published 2024):

Experiments:
[1] = tested on: EBP (zymostenol accumulation in EpiSC-derived OPCs); assay: GC/MS-based sterol profiling, zymostenol accumulation in OPCs; type: cell-based, mouse; settings: Mus musculus, 24 h, EpiSC-derived OPCs, 24 hr treatment, 8 doses from 0.15 nM to 333 nM; read-out: Zymostenol GCMS EC50
Procedure, shortened: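 EpiSC-derived OPCs (100,000/well) were treated 24 h in N2B27 without growth factors. Sterols were TMS-derivatized and analysed by GC/MS full-scan EI, quantified against cholesterol-d7. Zymostenol was normalized to the level after 24 h with 100 nM positive control reference.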

EpiSC-derived OPCs = assay: In vitro phenotypic screening of OPCs (MBP staining, high-content imaging); type: cell-based, mouse; settings: Mus musculus, 72 h, percentage of MBP+ oligodendrocytes, 3 days, 0.5 nM to 1000 nM; read-out: OPC EC50
Procedure, shortened: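 Readout: high-content imaging of MBP immunostaining around DAPI nuclei, giving percent oligodendrocytes, with EC50 from a Levenberg-Marquardt Hill fit. Epiblast stem cell-derived OPCs were plated on laminin at 150,000/cm^2 in growth-factor-free N2B27. They were exposed 3 days to an 8-point series, 0.5-1000 nM final, in two or more independent platings.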

SMILES	EC50 [1] [nM]	EC50 (EpiSC-derived OPCs) [nM]
O=S1(=O)CC2(CCN([C@@H]3CC[C@@H](c4ccc(C(F)(F)F)cc4)C3)C2)C1 [Compound 1B, 6-((1R,3R)-3-(4-(trifluoromethyl)phenyl)cyclopentyl)-2-thia-6-azaspiro[3.4]octane 2,2-dioxide]	2.6	1.8
Cn1nc(C(F)(F)F)cc1[C@H]1CC[C@@H](N2CCC3(C2)CS(=O)(=O)C3)CC1 [Compound 2A, 6-((1s,4s)-4-(1-methyl-3-(trifluoromethyl)-1H-pyrazol-5-yl)cyclohexyl)-2-thia-6-azaspiro[3.4]octane 2,2-dioxide]	56	240
Cn1nc(C(F)(F)F)cc1[C@H]1CC[C@H](N2CCC3(C2)CS(=O)(=O)C3)CC1 [Compound 2B, 6-((1r,4r)-4-(1-methyl-3-(trifluoromethyl)-1H-pyrazol-5-yl)cyclohexyl)-2-thia-6-azaspiro[3.4]octane 2,2-dioxide]	12	48
O=S1(=O)CC2(CCN(C3CCN(c4ccc(C(F)(F)F)cc4)CC3)C2)C1 [Compound 4, 6-(1-(4-(trifluoromethyl)phenyl)piperidin-4-yl)-2-thia-6-azaspiro[3.4]octane 2,2-dioxide]	2.5	23
O=S1(=O)CC2(CCN(C3CCN(c4ccc(C(F)(F)F)nc4)CC3)C2)C1 [Compound 5, 6-(1-(6-(trifluoromethyl)pyridin-3-yl)piperidin-4-yl)-2-thia-6-azaspiro[3.4]octane 2,2-dioxide]	50	190
O=S1(=O)CC2(CCN(C3CCN(c4ccc(C(F)(F)F)cn4)CC3)C2)C1 [Compound 6, 6-(1-(5-(trifluoromethyl)pyridin-2-yl)piperidin-4-yl)-2-thia-6-azaspiro[3.4]octane 2,2-dioxide]	14	39
Cc1cc(C(F)(F)F)cnc1N1CCC(N2CCC3(C2)CS(=O)(=O)C3)CC1 [Compound 7, 6-(1-(3-methyl-5-(trifluoromethyl)pyridin-2-yl)piperidin-4-yl)-2-thia-6-azaspiro[3.4]octane 2,2-dioxide]	34	21

The next lines start with the values.

EC50 [1] [nM]	EC50 (EpiSC-derived OPCs) [nM]	SMILES
2.1	5.1	O=S1(=O)CC2(CCN([C@H]3CC[C@H](c4ccc(C(F)(F)F)cc4)CC3)C2)C1 [Compound 3A, 6-((1r,4r)-4-(4-(trifluoromethyl)phenyl)cyclohexyl)-2-thia-6-azaspiro[3.4]octane 2,2-dioxide]
16	30	O=S1(=O)CC2(CCN([C@H]3CC[C@@H](c4ccc(C(F)(F)F)cc4)CC3)C2)C1 [Compound 3B, 6-((1s,4s)-4-(4-(trifluoromethyl)phenyl)cyclohexyl)-2-thia-6-azaspiro[3.4]octane 2,2-dioxide]
14	71	CC(C)n1nc(C(F)(F)F)cc1[C@H]1CC[C@H](N2CCC3(C2)CS(=O)(=O)C3)CC1 [Compound 8A, 6-((1r,4r)-4-(1-isopropyl-3-(trifluoromethyl)-1H-pyrazol-5-yl)cyclohexyl)-2-thia-6-azaspiro[3.4]octane 2,2-dioxide]
26	240	CC(C)n1nc(C(F)(F)F)cc1[C@H]1CC[C@@H](N2CCC3(C2)CS(=O)(=O)C3)CC1 [Compound 8B, 6-((1s,4s)-4-(1-isopropyl-3-(trifluoromethyl)-1H-pyrazol-5-yl)cyclohexyl)-2-thia-6-azaspiro[3.4]octane 2,2-dioxide]
11	37	O=S1(=O)CC2(CCN([C@H]3CC[C@H](c4cc(C(F)(F)F)nn4C4CC4)CC3)C2)C1 [Compound 12A, 6-((1r,4r)-4-(1-Cyclopropyl-3-(trifluoromethyl)-1H-pyrazol-5-yl)cyclohexyl)-2-thia-6-azaspiro[3.4]octane 2,2-dioxide]
23	240	O=S1(=O)CC2(CCN([C@H]3CC[C@@H](c4cc(C(F)(F)F)nn4C4CC4)CC3)C2)C1 [Compound 12B, 6-((1s,4s)-4-(1-Cyclopropyl-3-(trifluoromethyl)-1H-pyrazol-5-yl)cyclohexyl)-2-thia-6-azaspiro[3.4]octane 2,2-dioxide]
